Tested on: 485176-168-R4-J1-PDC complex spheroid growth
Assay: Anticancer human tumor 485176-168-R4-J1-PDC patient-derived pancreatic adenocarcinoma cell line growth inhibition [RAS]
Details: for viability, T/C: stronger effect = lower value
Outline: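 Multi-cell-type spheroids: tumor cells plus HUVEC endothelial cells and mesenchymal stem cells. RAS-pathway inhibitors were combined with targeted agents, each dosed in half-log steps down from clinical Cmax, or from 10 microM when Cmax was unknown.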
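Note: spheroids exposed to compounds for seven days before readout.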
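Throughout, for viability, T/C: luminescence viability expressed relative to DMSO vehicle wells set as 100%.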

Question: Which viability, T/C (compound 0.00316 µM) does the source give for CCN1CCN(Cc2ccc(Nc3ncc(F)c(-c4cc(F)c5nc(C)n(C(C)C)c5c4)n3)nc2)CC1 here?
Answer: Its viability, T/C is 92.9% [middle of 4 runs].

Question: What about the viability, T/C (compound 0.01 µM) of the same compound?
Answer: The viability, T/C was 88.4% [middle of 4 runs].

Question: What about the viability, T/C (compound 0.0316 µM) of the same compound?
Answer: The viability, T/C was 100% [middle of 4 runs].

Question: What about the viability, T/C (compound 0.316 µM) of the same compound?
Answer: Its viability, T/C is 75.5% [middle of 4 runs].

Question: What about the viability, T/C (compound 1 µM) of the same compound?
Answer: The viability, T/C was 67.7% [middle of 4 runs].

Question: And the IC50 (curve of compound)?
Answer: The IC50 was greater than 1 µM.

Question: O=C(c1ccc(F)c(F)c1Nc1ccc(I)cc1F)N1CC(O)([C@@H]2CCCCN2)C1 + CCn1c(-c2cccnc2C(C)OC)c2c3cc(ccc31)N1CCOC(CC(NC(=O)C(C(C)C)N(C)C(=O)C3(F)CCN(C(=O)C#CC(C)(C)N(C)C)CC3)C(=O)N3CCCC(N3)C(=O)OCC(C)(C)C2)C1 was tested. Which IC50 (curve of first compound, second compound 0.000949 µM) did it give?
Answer: The IC50 was 0.349 µM.

Question: What about the IC50 (curve of first compound, second compound 0.003 µM) of the same compound?
Answer: Its IC50 is 0.409 µM.

Question: What about the IC50 (curve of first compound, second compound 0.00949 µM) of the same compound?
Answer: The IC50 was 0.154 µM.

Question: And the IC50 (curve of first compound, second compound 0.03 µM)?
Answer: Its IC50 is 0.235 µM.

Question: And the IC50 (curve of first compound, second compound 0.0949 µM)?
Answer: The IC50 was 0.142 µM.

Question: And the IC50 (curve of first compound, second compound 0.3 µM)?
Answer: Its IC50 is 0.0326 µM.

Question: What about the viability, T/C (second compound 0.000949 µM, first compound 0.00316 µM) of the same compound?
Answer: Its viability, T/C is 90.4%.

Question: What about the viability, T/C (second compound 0.000949 µM, first compound 0.01 µM) of the same compound?
Answer: Its viability, T/C is 79%.

Question: And the viability, T/C (second compound 0.000949 µM, first compound 0.0316 µM)?
Answer: The viability, T/C was 86.3%.

Question: And the viability, T/C (second compound 0.000949 µM, first compound 0.1 µM)?
Answer: The viability, T/C was 61.4%.

Question: And the viability, T/C (second compound 0.000949 µM, first compound 0.316 µM)?
Answer: The viability, T/C was 53.8%.

Question: What about the viability, T/C (second compound 0.000949 µM, first compound 1 µM) of the same compound?
Answer: Its viability, T/C is 39.9%.

Question: What about the viability, T/C (second compound 0.003 µM, first compound 0.00316 µM) of the same compound?
Answer: The viability, T/C was 79.3%.

Question: And the viability, T/C (second compound 0.003 µM, first compound 0.01 µM)?
Answer: Its viability, T/C is 65.8%.

Question: And the viability, T/C (second compound 0.003 µM, first compound 0.0316 µM)?
Answer: Its viability, T/C is 73.2%.

Question: And the viability, T/C (second compound 0.003 µM, first compound 0.1 µM)?
Answer: Its viability, T/C is 58%.

Question: And the viability, T/C (second compound 0.003 µM, first compound 0.316 µM)?
Answer: Its viability, T/C is 50.9%.

Question: What about the viability, T/C (second compound 0.003 µM, first compound 1 µM) of the same compound?
Answer: The viability, T/C was 43.7%.

Question: And the viability, T/C (second compound 0.00949 µM, first compound 0.00316 µM)?
Answer: Its viability, T/C is 77.8%.

Question: And the viability, T/C (second compound 0.00949 µM, first compound 0.01 µM)?
Answer: Its viability, T/C is 85.8%.

Question: And the viability, T/C (second compound 0.00949 µM, first compound 0.0316 µM)?
Answer: The viability, T/C was 68.6%.

Question: What about the viability, T/C (second compound 0.00949 µM, first compound 0.1 µM) of the same compound?
Answer: The viability, T/C was 55%.

Question: What about the viability, T/C (second compound 0.00949 µM, first compound 0.316 µM) of the same compound?
Answer: Its viability, T/C is 43.4%.

Question: And the viability, T/C (second compound 0.00949 µM, first compound 1 µM)?
Answer: The viability, T/C was 36%.

Question: What about the viability, T/C (second compound 0.03 µM, first compound 0.00316 µM) of the same compound?
Answer: The viability, T/C was 97.1%.

Question: What about the viability, T/C (second compound 0.03 µM, first compound 0.01 µM) of the same compound?
Answer: The viability, T/C was 89.8%.

Question: And the viability, T/C (second compound 0.03 µM, first compound 0.0316 µM)?
Answer: The viability, T/C was 69.3%.

Question: What about the viability, T/C (second compound 0.03 µM, first compound 0.1 µM) of the same compound?
Answer: The viability, T/C was 51.9%.

Question: What about the viability, T/C (second compound 0.03 µM, first compound 0.316 µM) of the same compound?
Answer: Its viability, T/C is 56.7%.

Question: What about the viability, T/C (second compound 0.03 µM, first compound 1 µM) of the same compound?
Answer: Its viability, T/C is 36.7%.

Question: What about the viability, T/C (second compound 0.0949 µM, first compound 0.00316 µM) of the same compound?
Answer: Its viability, T/C is 89.7%.

Question: What about the viability, T/C (second compound 0.0949 µM, first compound 0.01 µM) of the same compound?
Answer: The viability, T/C was 64.1%.

Question: What about the viability, T/C (second compound 0.0949 µM, first compound 0.0316 µM) of the same compound?
Answer: The viability, T/C was 68.6%.

Question: What about the viability, T/C (second compound 0.0949 µM, first compound 0.1 µM) of the same compound?
Answer: Its viability, T/C is 53.6%.

Question: What about the viability, T/C (second compound 0.0949 µM, first compound 0.316 µM) of the same compound?
Answer: Its viability, T/C is 44.2%.

Question: And the viability, T/C (second compound 0.0949 µM, first compound 1 µM)?
Answer: Its viability, T/C is 32.3%.

Question: What about the viability, T/C (second compound 0.3 µM, first compound 0.00316 µM) of the same compound?
Answer: The viability, T/C was 67.2%.

Question: What about the viability, T/C (second compound 0.3 µM, first compound 0.01 µM) of the same compound?
Answer: Its viability, T/C is 70.8%.

Question: And the viability, T/C (second compound 0.3 µM, first compound 0.0316 µM)?
Answer: Its viability, T/C is 50.2%.

Question: And the viability, T/C (second compound 0.3 µM, first compound 0.1 µM)?
Answer: Its viability, T/C is 45.6%.

Question: What about the viability, T/C (second compound 0.3 µM, first compound 0.316 µM) of the same compound?
Answer: Its viability, T/C is 40%.

Question: What about the viability, T/C (second compound 0.3 µM, first compound 1 µM) of the same compound?
Answer: The viability, T/C was 39.5%.

Reference: PubChem BioAssay AID2060906 (Molecular Pharmacology Branch, DTP, NCI, 2025)
